According to patent US12390430B1 (SpringWorks Therapeutics, Inc., priority 2024, dated 2025):
Like-named read-outs stand apart in the source and are kept apart here.

Tests used:
[1] = Clinical pharmacokinetics of mirdametinib (Table A); format: in vivo, human; settings: for Tmax / AUC(0-t) / Cmax: human, plasma; for Tmax: oral, read-out: Tmax [median (range)]; for AUC(0-t) / Cmax: po, steady state, BID oral dosing; for AUC(0-t): read-out: Steady-state exposure AUClast [geometric mean (geometric % CV)]; for Cmax: read-out: Steady-state exposure Cmax [geometric mean (geometric % CV)]
Protocol: Study treatment was administered orally at a twice daily (BID) dose specified in the table below. Dosing was on a 28-day Cycle (4-week course) with a 3 week on/1 week off schedule. The treatment period will last for up to 24 Cycles followed by a 30-day Safety Follow-Up period.

[2] = Human plasma protein binding; format: in vitro ADME
[3] = Excretion of radioactivity and unchanged mirdametinib; format: in vivo
[4] = geometric least squares mean ratio
[5] = pediatric patients (2 to <18 years)

SMILES: O=C(NOC[C@H](O)CO)c1ccc(F)c(F)c1Nc1ccc(I)cc1F (single isomer, unassigned) [mirdametinib]
- Food effect on AUCinf [GMR% (90% CI)] [1, 4]: 93% (90%, 96%)
- Food effect on Cmax [GMR% (90% CI)] [1, 4]: 57% (54%, 61%)
- Tmax ([1]; capsule): 64.8 min
- Tmax ([1]; tablet): 49.8 min
- AUC(0-t) ([1]; adult patients (>18 years)): 431 ng·h/mL
- Cmax ([1]; adult patients (≥18 years)): 188 ng/mL
- AUC(0-t) [1, 5]: 459 ng·h/mL
- Cmax [1, 5]: 191 ng/mL
- fraction unbound [2]: < 0.01
- Excretion: radioactivity in feces ([3]; feces): In feces: 27%
- Excretion: radioactivity in urine ([3]; urine): In urine: 68%
- Excretion: unchanged mirdametinib in urine ([3]; urine): In urine: 0.7%
- Excretion: unchanged mirdametinib in urine and feces ([3]; urine and feces): In urine and feces: 9%
